The target of the experiment is T1, human MC5R (Homo sapiens, UniProt P33032).
T1 construct: purchased Perkin Elmer RBXMC5M400UA
T1 sequence (P33032 whole entry): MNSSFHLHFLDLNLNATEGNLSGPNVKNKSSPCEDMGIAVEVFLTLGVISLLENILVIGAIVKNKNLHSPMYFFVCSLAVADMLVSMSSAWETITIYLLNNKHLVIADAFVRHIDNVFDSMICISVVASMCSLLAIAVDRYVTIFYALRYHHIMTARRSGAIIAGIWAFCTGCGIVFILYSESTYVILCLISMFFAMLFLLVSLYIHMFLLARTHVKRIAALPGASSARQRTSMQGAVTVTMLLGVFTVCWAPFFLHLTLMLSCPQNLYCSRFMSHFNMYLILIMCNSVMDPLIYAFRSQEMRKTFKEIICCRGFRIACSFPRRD
Nature of the experiment: Human MC5R radioligand binding assay ([125I] NDP-MSH displacement, hMC5R membranes). The note with it: hMC5R assay as in Example 102; compounds tested as trifluoroacetate or hydrochloride salts, or as free base. In a few lines: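 Bound ligand collected by filtration on PEI-soaked GF/A filters and counted. Data fitted to a single-site competition model with fixed Hill coefficient to give EC50.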
With `N=C(N)NCCC[C@@H]1N[C@H](CNC(=O)c2ccc(-c3ccccc3)o2)CCN(CC(c2ccccc2)c2ccccc2)C1=O` [Compound 179, N-(((3S,5S)-1-(2,2-diphenylethyl)-3-(3-guanidinopropyl)-2-oxo-1,4-diazepan-5-yl)methyl)-5-phenylfuran-2-carboxamide], the IC50 is less than 1000 nM.

As to `COc1cccc(/C=C/C(=O)NC[C@@H]2CCN(CC(c3ccccc3)c3ccccc3)C(=O)[C@H](CCCNC(=N)N)N2)c1` [Compound 180, (E)-N-(((3S,5S)-1-(2,2-diphenylethyl)-3-(3-guanidinopropyl)-2-oxo-1,4-diazepan-5-yl)methyl)-3-(3-methoxyphenyl)acrylamide], the IC50 was less than 1000 nM.

Consider `N=C(N)NCCC[C@@H]1N[C@H](CNC(=O)c2ccc3cc(Br)ccc3c2)CCN(CC(c2ccccc2)c2ccccc2)C1=O` [Compound 181, 6-bromo-N-(((3S,5S)-1-(2,2-diphenylethyl)-3-(3-guanidinopropyl)-2-oxo-1,4-diazepan-5-yl)methyl)-2-naphthamide], for which the IC50 is less than 10 nM.

On to `N=C(N)NCCC[C@@H]1N[C@H](CNC(=O)c2ccc3ccccc3c2)CCN(CCc2ccccc2)C1=O` [Compound 182, N-(((3S,5S)-3-(3-guanidinopropyl)-2-oxo-1-phenethyl-1,4-diazepan-5-yl)methyl)-2-naphthamide], for which the IC50 was less than 1000 nM.

On to `N=C(N)NCCC[C@@H]1N[C@H](CNC(=O)c2ccc3sccc3c2)CCN(CC(c2ccccc2)c2ccccc2)C1=O` [Compound 185, N-(((3S,5S)-1-(2,2-diphenylethyl)-3-(3-guanidinopropyl)-2-oxo-1,4-diazepan-5-yl)methyl)benzo[b]thiophene-5-carboxamide], for which the IC50 is less than 100 nM.

For the molecule `Cc1c(C(=O)NC[C@@H]2CCN(CC(c3ccccc3)c3ccccc3)C(=O)[C@H](CCCNC(=N)N)N2)cnn1-c1ccccc1` [Compound 186, N-(((3S,5S)-1-(2,2-diphenylethyl)-3-(3-guanidinopropyl)-2-oxo-1,4-diazepan-5-yl)methyl)-5-methyl-1-phenyl-1H-pyrazole-4-carboxamide], the IC50 is less than 100 nM.

As for `COc1ccc(/C=C/C(=O)NC[C@@H]2CCN(CC(c3ccccc3)c3ccccc3)C(=O)[C@H](CCCNC(=N)N)N2)cc1` [Compound 187, (E)-N-(((3S,5S)-1-(2,2-diphenylethyl)-3-(3-guanidinopropyl)-2-oxo-1,4-diazepan-5-yl)methyl)-3-(4-methoxyphenyl)acrylamide], the IC50 was less than 100 nM.

As to `N=C(N)NCCC[C@@H]1N[C@H](CNC(=O)c2ccc3cc(F)ccc3c2)CCN(CC(c2ccccc2)c2ccccc2)C1=O` [Compound 188, N-(((3S,5S)-1-(2,2-diphenylethyl)-3-(3-guanidinopropyl)-2-oxo-1,4-diazepan-5-yl)methyl)-6-fluoro-2-naphthamide], the concentration for half-maximal inhibition (IC50) was less than 100 nM.

`N=C(N)NCCC[C@@H]1N[C@H](CNC(=O)/C=C/c2ccccc2Cl)CCN(CC(c2ccccc2)c2ccccc2)C1=O` [Compound 189, (E)-3-(2-chlorophenyl)-N-(((3S,5S)-1-(2,2-diphenylethyl)-3-(3-guanidinopropyl)-2-oxo-1,4-diazepan-5-yl)methyl)acrylamide]: the IC50 was less than 1000 nM.

On to `Cc1cccc(/C=C/C(=O)NC[C@@H]2CCN(CC(c3ccccc3)c3ccccc3)C(=O)[C@H](CCCNC(=N)N)N2)c1` [Compound 191, (E)-N-(((3S,5S)-1-(2,2-diphenylethyl)-3-(3-guanidinopropyl)-2-oxo-1,4-diazepan-5-yl)methyl)-3-m-tolylacrylamide], for which the IC50 is less than 100 nM.

As to `N=C(N)NCCC[C@@H]1N[C@H](CNC(=O)/C=C/c2cccc(C(F)(F)F)c2)CCN(CC(c2ccccc2)c2ccccc2)C1=O` [Compound 192, (E)-N-(((3S,5S)-1-(2,2-diphenylethyl)-3-(3-guanidinopropyl)-2-oxo-1,4-diazepan-5-yl)methyl)-3-(3-(trifluoromethyl)phenyl)acrylamide], the IC50 is less than 1000 nM.

`N=C(N)NCCC[C@@H]1N[C@H](CNC(=O)/C=C/c2cccc(O)c2)CCN(CC(c2ccccc2)c2ccccc2)C1=O` [Compound 193, (E)-N-(((3S,5S)-1-(2,2-diphenylethyl)-3-(3-guanidinopropyl)-2-oxo-1,4-diazepan-5-yl)methyl)-3-(3-hydroxyphenyl)acrylamide]: the IC50 was less than 1000 nM.

In the case of `N=C(N)NCCC[C@@H]1N[C@H](CNC(=O)/C=C/c2ccccc2F)CCN(CC(c2ccccc2)c2ccccc2)C1=O` [Compound 194, (E)-N-(((3S,5S)-1-(2,2-diphenylethyl)-3-(3-guanidinopropyl)-2-oxo-1,4-diazepan-5-yl)methyl)-3-(2-fluorophenyl)acrylamide], the concentration for half-maximal inhibition (IC50) is less than 100 nM.

Take `Cc1ccccc1/C=C/C(=O)NC[C@@H]1CCN(CC(c2ccccc2)c2ccccc2)C(=O)[C@H](CCCNC(=N)N)N1` [Compound 195, (E)-N-(((3S,5S)-1-(2,2-diphenylethyl)-3-(3-guanidinopropyl)-2-oxo-1,4-diazepan-5-yl)methyl)-3-o-tolylacrylamide]: the IC50 was less than 100 nM.

In the case of `N=C(N)NCCC[C@@H]1N[C@H](CNC(=O)/C=C/c2ccc(F)cc2)CCN(CC(c2ccccc2)c2ccccc2)C1=O` [Compound 199, (E)-N-(((3S,5S)-1-(2,2-diphenylethyl)-3-(3-guanidinopropyl)-2-oxo-1,4-diazepan-5-yl)methyl)-3-(4-fluorophenyl)acrylamide], the IC50 is less than 100 nM.

Consider `N=C(N)NCCC[C@@H]1N[C@H](CNC(=O)/C=C/c2ccc(C(F)(F)F)cc2)CCN(CC(c2ccccc2)c2ccccc2)C1=O` [Compound 200, (E)-N-(((3S,5S)-1-(2,2-diphenylethyl)-3-(3-guanidinopropyl)-2-oxo-1,4-diazepan-5-yl)methyl)-3-(4-(trifluoromethyl)phenyl)acrylamide], for which the half-maximal inhibitory concentration (IC50) is less than 100 nM.

As to `N=C(N)NCCC[C@@H]1N[C@H](CNC(=O)/C=C/c2c(F)cccc2F)CCN(CC(c2ccccc2)c2ccccc2)C1=O` [Compound 208, (E)-3-(2,6-difluorophenyl)-N-(((3S,5S)-1-(2,2-diphenylethyl)-3-(3-guanidinopropyl)-2-oxo-1,4-diazepan-5-yl)methyl)acrylamide], the IC50 was less than 100 nM.

As for `N=C(N)NCCC[C@@H]1N[C@H](CNC(=O)/C=C/c2c(F)cccc2Cl)CCN(CC(c2ccccc2)c2ccccc2)C1=O` [Compound 209, (E)-3-(2-chloro-6-fluorophenyl)-N-(((3S,5S)-1-(2,2-diphenylethyl)-3-(3-guanidinopropyl)-2-oxo-1,4-diazepan-5-yl)methyl)acrylamide], the half-inhibitory concentration (IC50) was less than 100 nM.

With `N=C(N)NCCC[C@@H]1N[C@H](CNC(=O)/C=C/c2ccc(Br)cc2)CCN(CC(c2ccccc2)c2ccccc2)C1=O` [Compound 210, (E)-3-(4-bromophenyl)-N-(((3S,5S)-1-(2,2-diphenylethyl)-3-(3-guanidinopropyl)-2-oxo-1,4-diazepan-5-yl)methyl)acrylamide], the IC50 is less than 10 nM.

As for `NCCC[C@@H]1N[C@H](CNC(=O)/C=C/c2ccc(Cl)cc2)CCN(CC(c2ccccc2)c2ccccc2)C1=O` [Compound 214, (E)-N-(((3S,5S)-3-(3-aminopropyl)-1-(2,2-diphenylethyl)-2-oxo-1,4-diazepan-5-yl)methyl)-3-(4-chlorophenyl)acrylamide], the half-maximal inhibitory concentration (IC50) is less than 100 nM.

Consider `COc1cc(C(=O)NC[C@@H]2CCN(CC(c3ccccc3)c3ccccc3)C(=O)[C@H](CCCNC(=N)N)N2)c(OC)c2ccccc12` [Compound 215, N-(((3S,5S)-1-(2,2-diphenylethyl)-3-(3-guanidinopropyl)-2-oxo-1,4-diazepan-5-yl)methyl)-1,4-dimethoxy-2-naphthamide], for which the IC50 was less than 1000 nM.

Consider `CN(C)C(=N)NCCC[C@@H]1N[C@H](CNC(=O)c2ccc3ccccc3c2)CCN(CC(c2ccccc2)c2ccccc2)C1=O` [Compound 216, N-(((3S,5S)-3-(3-(3,3-dimethylguanidino)propyl)-1-(2,2-diphenylethyl)-2-oxo-1,4-diazepan-5-yl)methyl)-2-naphthamide], for which the IC50 is less than 100 nM.

Consider `N=C(N)NCCC[C@@H]1N[C@H](CNC(=O)c2ccc3cc(N)ccc3c2)CCN(CC(c2ccccc2)c2ccccc2)C1=O` [Compound 218, 6-amino-N-(((3S,5S)-1-(2,2-diphenylethyl)-3-(3-guanidinopropyl)-2-oxo-1,4-diazepan-5-yl)methyl)-2-naphthamide], for which the IC50 was less than 10000 nM.

As for `Cc1ccc(/C=C/C(=O)NC[C@@H]2CCN(CC(c3ccccc3)c3ccccc3)C(=O)[C@H](CCCN)N2)cc1` [Compound 219, (E)-N-(((3S,5S)-3-(3-aminopropyl)-1-(2,2-diphenylethyl)-2-oxo-1,4-diazepan-5-yl)methyl)-3-p-tolylacrylamide], the IC50 is less than 100 nM.

With `NCCC[C@@H]1N[C@H](CNC(=O)/C=C/c2ccc(F)cc2)CCN(CC(c2ccccc2)c2ccccc2)C1=O` [Compound 220, (E)-N-(((3S,5S)-3-(3-aminopropyl)-1-(2,2-diphenylethyl)-2-oxo-1,4-diazepan-5-yl)methyl)-3-(4-fluorophenyl)acrylamide], the half-maximal inhibitory concentration (IC50) was less than 100 nM.

Regarding `NCCC[C@@H]1N[C@H](CNC(=O)c2ccc3cc(F)ccc3c2)CCN(CC(c2ccccc2)c2ccccc2)C1=O` [Compound 221, N-(((3S,5S)-3-(3-aminopropyl)-1-(2,2-diphenylethyl)-2-oxo-1,4-diazepan-5-yl)methyl)-6-fluoro-2-naphthamide], the IC50 was less than 100 nM.

In the case of `Cc1ccc(C(=O)NC[C@@H]2CCN(CC(c3ccccc3)c3ccccc3)C(=O)[C@H](CCCN)N2)cc1C` [Compound 223, N-(((3S,5S)-3-(3-aminopropyl)-1-(2,2-diphenylethyl)-2-oxo-1,4-diazepan-5-yl)methyl)-3,4-dimethylbenzamide], the IC50 is less than 1000 nM.

`NCCC[C@@H]1N[C@H](CNC(=O)c2ccc(Cl)c(Cl)c2)CCN(CC(c2ccccc2)c2ccccc2)C1=O` [Compound 224, N-(((3S,5S)-3-(3-aminopropyl)-1-(2,2-diphenylethyl)-2-oxo-1,4-diazepan-5-yl)methyl)-3,4-dichlorobenzamide]: the IC50 is less than 100 nM.

For the origin of these results see patent EP2257297B1, “COMPOUNDS FOR USE IN THE TREATMENT OF ACNE, SEBORRHOEA AND SEBHORROEIC DERMATITIS, OR FOR REDUCING SEBUM SECRETION” (priority 2008, dated 2009).
